Patent US20180355326A1, “CYTOCHROME P450 AND CYTOCHROME P450 REDUCTASE POLYPEPTIDES, ENCODING NUCLEIC ACID MOLECULES AND USES THEREOF” (UNIVERSITY OF BRITISH COLUMBIA, priority 2012, published 2018)
Each block holds one molecule with its values, some of them ahead of it.

Tests used:
[1] = biological target: T1, SaCYP76F37v1 (SaCYP76-G11) (Santalum album, UniProt V5RGC8); assay: Substrate specificity, yeast microsomes containing SaCYP76F37v1 with various sesquiterpenes; type: biochemical; conditions: 40 μM of substrate, 30° C., 2 hours; for activity at 40 µM: rate of product formation relative to product formation by SaCYP76F39v1 with β-santalene
Procedure: (§1) Assays were performed in 400 μL reaction volumes containing 50 mM potassium phosphate pH 7.5, 0.8 mM NADPH and 40 μM of substrate. Enzyme reactions were initiated by adding 50 μL of the microsomes preparation (prepared in Example 8), incubated at 30° C. for 2 hours with shaking and stopped by adding 500 μL hexane.
(§2) To test the range of substrates used by the clade I and clade II SaCYP76F enzymes, yeast microsomes containing SaCYP76F37v1 (SaCYP76-G11) and SaCYP76F39v1 (SaCYP76-G10) were assayed for their ability to convert various sesquiterpenes, including the substrates α-santalene and β-santalene and 7 additional sesquiterpenes which resemble santalenes in the acyclic isoprenyl side chain, including α-curcumene, zingiberine, β-bisabolene, β-sesquiphellandrene, α-bisabolol, trans-β-farnesene and trans-nerolidol. Each substrate was tested using the in vitro assay described in Example 11.B.1.b above.
(§3) The results are shown in Table 15 below, which sets forth the substrates, including their structures, and the relative activities which represent the rate of product formation relative to product formation by SaCYP76F39v1 (SaCYP76-G10) with β-santalene.

[2] = biological target: T2, SaCYP76F39v1 (SaCYP76-G10) (Santalum album, UniProt V5RH69); assay: Substrate specificity, yeast microsomes containing SaCYP76F39v1 with various sesquiterpenes; type: biochemical; conditions: 40 μM of substrate, 30° C., 2 hours; for activity at 40 µM: rate of product formation relative to product formation by SaCYP76F39v1 with β-santalene
Procedure: as §1, §2, §3

[3] = biological target: T2, SaCYP76F39v1 (SaCYP76-G10); assay: Oxidation of various mono- and sesquiterpene substrates in vitro by SaCYP76F39v1; conditions: product formation the same as that catalyzed by CYP76-G5
Procedure: The reaction mixtures contained 50 mM potassium phosphate, 0.8 mM NADPH and 60 to 80 μM of the terpene substrate in a total volume of 350 μL. Enzyme reactions were started by adding 50 μL of the microsome preparation, incubated at 30° C. for 1 hour with shaking and stopped by extraction with 500 μL of hexane/ethyl acetate (85:15). […] The reaction products were identified based on matches of the MS fragmentation patterns with entries in the NIST and Wiley libraries (Wiley Registry® 9th Edition/NIST 2011; Fred W. McLafferty, John Wiley & Sons, Inc.).

[4] = system: SaCYP76F38v1 (SaCYP76-G5); assay: Oxidation of various mono- and sesquiterpene substrates by yeast microsomes containing SaCYP76F38v1; type: biochemical, Santalum album; conditions: 60 to 80 μM of the terpene substrate, 30° C., 1 hour, GC-MS, compared to vector control
Procedure: The reaction mixtures contained 50 mM potassium phosphate, 0.8 mM NADPH and 60 to 80 μM of the terpene substrate in a total volume of 350 μL. Enzyme reactions were started by adding 50 μL of the microsome preparation, incubated at 30° C. for 1 hour with shaking and stopped by extraction with 500 μL of hexane/ethyl acetate (85:15). The organic layer was concentrated under a gentle stream of N2 gas to about 100 μL and analyzed by GC-MS analysis as described in Example 6. […] The reaction products were identified based on matches of the MS fragmentation patterns with entries in the NIST and Wiley libraries (Wiley Registry® 9th Edition/NIST 2011; Fred W. McLafferty, John Wiley & Sons, Inc.).

[5] = biological target: T2, SaCYP76F39v1 (SaCYP76-G10); assay: Oxidation of individual sesquiterpenes by microsomes containing SaCYP76F39v1; type: biochemical; conditions: partially purified substrate fraction, GC-MS
Procedure: as §1
(§4) Microsome preparations containing candidate P450 were assayed for their capacity to oxidize individual sesquiterpenes. The sesquiterpenes were isolated as described in Example 9 above. Three fractions containing mainly α-santalene, α-trans-bergamotene, or epi-β-santalene and β-santalene were used as individual substrates in assays containing clade I P450 SaCYP76F39v1 (SaCYP76-G10) or clade II P450 SaCYP76F37v1 (SaCYP76-G11). The assays were performed as described in Section B.1.b. above and products were identified by comparison to authentic standards (see Table 12 and FIG. 20G).

[6] = biological target: T2, SaCYP76F39v1 (SaCYP76-G10); assay: In vitro assay 2, microsomes containing SaCYP76F39v1 with a mixture of santalenes and bergamotene; type: biochemical; conditions: substrate mixture of santalenes and bergamotene; no product in the absence of NADPH or with empty vector microsomes
Procedure: as §1
Microsomes containing SaCYP76F39v1 (SaCYP76-G10) were assayed for their activity using the assay described in Section B. above.

[7] = biological target: T1, SaCYP76F37v1 (SaCYP76-G11); assay: Oxidation of individual sesquiterpenes by microsomes containing SaCYP76F37v1; type: biochemical; conditions: partially purified substrate fraction, GC-MS
Procedure: as §1, §4

[8] = system: SaCYP76F38v1 (SaCYP76-G5); assay: Coupled enzyme assay with SaSSy and FPP, microsomes containing SaCYP76F38v1; type: biochemical, Santalum album; conditions: in vitro reaction products of SaSSy and 70 μM FPP, 0.8 mM NADPH, 30° C., 1 hour
Procedure: Coupled enzyme assays with S. album santalene synthase (SaSSy) expressed in bacteria (Jones et al. (2011) J Biol Chem 286:17445-17454) were initiated with 50 μg of His6-tag purified SaSSy and 70 μM farnesyl pyrophosphate (FPP) in TPS buffer (25 mM HEPES pH 7.5, 5 mM MgCl2, 1 mM DTT) in a volume of 450 μL. The assays were incubated for 30 min at 30° C. followed by the addition of 50 μL of the microsome preparation containing a S. album cytochrome P450 and a cytochrome P450 reductase and 0.8 mM NADPH. The reaction was incubated for an additional 1 hour at 30° C. and was stopped by extraction with 500 μL hexane/ethyl acetate (85:15).

[9] = substrate: CC(C)=CCC[C@]1(C)C2C[C@@H]3[C@H](C2)C31C; assay: Kinetic assay with α-santalene or β-santalene as the substrate, SaCYP76F39v1; type: biochemical, Santalum album; conditions: other: apparent Km, 17 pmol P450, substrate 12 to 138 μM, 0.8 mM NADPH, pH 7.5, 30° C., 20 minutes
Procedure: (§5) To test the kinetics of the clade I and clade II SaCYP76F enzymes, kinetic assays were performed with SaCYP76F37v1 (SaCYP76-G11) and SaCYP76F39v1 (SaCYP76-G10) with α-santalene or β-santalene as the substrate. Assays were performed in 400 μL reaction volumes containing 50 mM potassium phosphate pH 7.5, 0.8 mM NADPH and substrate concentrations of 12 to 138 μM of α-santalene or β-santalene. Enzyme reactions were initiated by adding either 17 pmol of SaCYP7639v1 or 35 pmol of SaCYP7637v1, incubated at 30° C. for 20 minutes with shaking and stopped by adding 500 μL hexane. […] Kinetic data were evaluated using tools described in Hernandez and Ruiz ((1998) Bioinformatics. 14:227-228).
(§6) The apparent Km values, kcat values and kcat/Km values for SaCYP76F39v1 (SaCYP76-G10) and SaCYP76F37v1 (SaCYP76-G11) with α-santalene and β-santalene are set forth in Table 14 below.

[10] = substrate: C=C1[C@@H]2CC[C@@H](C2)[C@@]1(C)CCC=C(C)C; assay: as above; type: biochemical, Santalum album; conditions: other: apparent Km, 17 pmol P450, substrate 12 to 138 μM, 0.8 mM NADPH, pH 7.5, 30° C., 20 minutes
Procedure: as §5, §6

[11] = substrate: CC(C)=CCC[C@]1(C)C2C[C@@H]3[C@H](C2)C31C; assay: Kinetic assay with α-santalene or β-santalene as the substrate, SaCYP76F37v1; type: biochemical, Santalum album; conditions: other: apparent Km, 35 pmol P450, substrate 12 to 138 μM, 0.8 mM NADPH, pH 7.5, 30° C., 20 minutes
Procedure: as §5, §6

[12] = substrate: C=C1[C@@H]2CC[C@@H](C2)[C@@]1(C)CCC=C(C)C; assay: as above; type: biochemical, Santalum album; conditions: other: apparent Km, 35 pmol P450, substrate 12 to 138 μM, 0.8 mM NADPH, pH 7.5, 30° C., 20 minutes
Procedure: as §5, §6

- activity at 40 µM [1]: 0%
- Use as a substrate by SaCYP76F39v1 (in words) [2]: did not use
- activity at 40 µM [2]: 0%
Molecule: CC(C)=CCCC(C)c1ccc(C)cc1 (stereo not drawn) [α-curcumene]

Molecule: C=CC(C)(O)CCC=C(C)C (stereo not shown) [linalool]
- Hydroxylation by CYP76-G10 in vitro [3]: catalyzed the hydroxylation
- Products of reaction with SaCYP76F38v1 [4]: two products

- activity at 40 µM [1]: 0%
- Use as a substrate by SaCYP76F39v1 (in words) [2]: did not use
- activity at 40 µM [2]: 0%
Molecule: C=C(CCC=C(C)C)C1CC=C(C)CC1 (stereo not drawn) [β-bisabolene]

- activity at 40 µM [1]: 0%
- Use as a substrate by SaCYP76F39v1 (in words) [2]: did not use
- activity at 40 µM [2]: 0%
Molecule: C=CC(=C)CC/C=C(\C)CCC=C(C)C [trans-farnesene]

- activity at 40 µM [1]: 0%
- Use as a substrate by SaCYP76F39v1 (in words) [2]: low activity
- activity at 40 µM [2]: 9.4%
Molecule: CC(C)=CCCC(C)(O)C1CC=C(C)CC1 (stereo not drawn) [α-bisabolol]

- Hydroxylation by CYP76-G10 in vitro [3]: catalyzed the hydroxylation
Molecule: CC(C)=CCC[C@](C)(O)C1CC=C(C)CC1 (stereo partly shown) [bisabolol]
- Products of reaction with SaCYP76F38v1 [4]: one product

- Use as a substrate by SaCYP76F37v1 (in words) [1]: selectively active
- activity at 40 µM [1]: 11.3%
- Use as a substrate by SaCYP76F39v1 (in words) [2]: did not use
- activity at 40 µM [2]: 0%
Molecule: C=CC(C)(O)CC/C=C(\C)CCC=C(C)C (stereo not drawn) [trans-nerolidol]

- Products formed with SaCYP76F39v1 [5]: (Z)- and (E)-α-trans-bergamotol
- Hydroxylation by SaCYP76F39v1 [6]: catalyzed the hydroxylation
- Products formed with SaCYP76F37v1 [7]: only (E)-α-trans-bergamotol
- Hydroxylation/oxidation by SaCYP76F38v1 [8]: catalyzed the hydroxylation
Molecule: CC(C)=CCCC1(C)C2CC=C(C)C1C2 (stereo not drawn) [α-trans-bergamotene]

- Hydroxylation by SaCYP76F39v1 [6]: catalyzed the hydroxylation
Molecule: C=C1C2CCC(C2)[C@@]1(C)CCC=C(C)C (stereo partly drawn) [epi-β-santalene]

- activity at 40 µM [1]: 0%
- Use as a substrate by SaCYP76F39v1 (in words) [2]: did not use
- activity at 40 µM [2]: 0%
Molecule: C=C1C=CC(C(C)CCC=C(C)C)CC1 (stereo not drawn) [β-sesquiphellandrene]

- activity at 40 µM [1]: 17.7%
- Hydroxylation by SaCYP76F39v1 [6]: catalyzed the hydroxylation
- activity at 40 µM [2]: 100%
Molecule: C=C1[C@@H]2CC[C@@H](C2)[C@@]1(C)CCC=C(C)C [β-santalene]

- Products formed with SaCYP76F39v1 [5]: (Z)- and (E)-α-santalol
- activity at 40 µM [1]: 17.3%
- Hydroxylation by SaCYP76F39v1 [6]: catalyzed the hydroxylation
- Products formed with SaCYP76F37v1 [7]: only (E)-α-santalol
- activity at 40 µM [2]: 99.8%
Molecule: CC(C)=CCC[C@]1(C)C2C[C@@H]3[C@H](C2)C31C [α-santalene]

Molecule: C=CC(C)(O)CCC=C(C)CCC=C(C)C (stereo not shown) [nerolidol]
- Products of reaction with SaCYP76F38v1 [4]: two products

- activity at 40 µM [1]: 0%
- Use as a substrate by SaCYP76F39v1 (in words) [2]: did not use
- activity at 40 µM [2]: 0%
Molecule: CC(C)=CCCC(C)C1C=CC(C)=CC1 (stereo not shown) [zingiberene]

B1: SaCYP76F39v1 (SaCYP76-G10) (Santalum album) (protein)
chain: MDFLSCILFVLFAWALVRALPTLSRGSKAASGRLPPGPVPWPVVGNLLKLGNKPHKSLAELAKSYGPIMCLKLGHMTTIVISTPTVAKEVLQKQDVAFSNRTTPDAVRAHGHDLYSMAWLPVSTRWRTLRKISNSHIFTSQRLDENHHLRRRKLDELLARVAESSLVGAVVDMGAVAFLTSLNLLSNTVFSKDLVEPGLGAVQETKEVVWGMMEEAGRPNLVDYFPVLRRLDPQGIRRRMTGYFGKMLEVFGDIIDERLEWRKQQSDGDSPAGTTNDVLDVLLNIIEDAEIEEKPNRTDVEHFLLDLFAAGSDTTSSTVEWAMTELLRKPETLERARSELHETIGPENLVQEADLPRLPYLQAVVKETFRLHPPVPLLLPRTAEKDAELCGFTVPAGAQIMVNAWAIGRDPGTWEDPESFLPERFLGSDVDVKGRSFELIPFGGGRRICPGLPLAIRMVHLMLGSLIHGFRWKVDDDGMGSPETAMDMDEKFGITLQKAKPLCAVPIRG
- Km [9]: 25.92 ± 0.11 µM
- kcat [9]: 1.12 s⁻¹
- kcat/Km [9]: 43000 M⁻¹ s⁻¹
- Km [10]: 34.82 ± 0.41 µM
- kcat [10]: 1.17 s⁻¹
- kcat/Km [10]: 33000 M⁻¹ s⁻¹

B2: SaCYP76F37v1 (SaCYP76-G11) (Santalum album) (protein)
chain: MDFLSCILSVLFAWALVRALPTLSRGSKAAGGRLPPGPVPLPVVGNLLKLGSKPHKSLAELAKSYGPIMCLKLGHIITIVISTPTVAKEVLQKQDVAFCNRTIPDAVRAHRHDLHSMVWLPVSTRWRTLRKISNSHIFSSQRLDENHHLRRRKLDELLTRVAESSLVGAVVDIGAVAFLTSLNLLSNTVFSKDLVEPGLGAVQEMEEVVWGITEEAGRPNLVDYFPVLRRLDPQGTRRRMMGYFGKMFEVFGDIIDERLEWRKQQSDGDSPAGTTNDVLDVLLNIIEDAEIEEKPNRTDVEHFLLDLFAAGSDTTSSTVEWAMTELLRKPETLERARSELHETIGPENLVQEADLPRLPYLQAVVKETFRLHPPVPLLLPRTAEKDAELCGFTVPAGAQIMVNAWAIGRDPGTWEDPESFLPERFLGSDVDVKGRSFELIPFGGGRRICPGLPLAIRMVHLMLGSLIHGFRWKVDDDGMGSPETAMDMDEKFGITLQKAKPLCAVPIRG
- Km [11]: 133 ± 0.41 µM
- kcat [11]: 0.2 s⁻¹
- kcat/Km [11]: 1500 M⁻¹ s⁻¹
- Km [12]: 157 ± 0.17 µM
- kcat [12]: 0.13 s⁻¹
- kcat/Km [12]: 810 M⁻¹ s⁻¹
